Results as given in ChEMBL document CHEMBL3507680, “University of Dundee, Gates Library screen for HepG2 cell viability”.

Test: Human HepG2 cell viability assay in 384 well format
Type: toxicity, cell-based
Set-up: dose 125 nL, time 70.5 hour; concentration not given beside the values
Conditions: HepG2 cells, read-out: Inhibition

Structure (SMILES) | cytotoxicity at 70.5 h [%]
O=C(c1cccnc1)N1Cc2nccn2CC(COc2cccnc2)C1 (stereo not drawn) | -15.2
Cc1cc(C)c2nc(CN3C[C@H](CCO)[C@@H](N)C3)cc(O)c2c1 | -4.09
Cn1cc(Cl)c(CN2CCCC(Cn3cc(CO)nn3)C2)n1 (stereo not drawn) | -6.23
CCOc1ccc(NC(=O)c2cnc(N3CCCC3)nc2C)cc1 | -15.6
COCCCN(CCOC)C(=O)Nc1ccccc1-n1cccn1 | 2.41
c1ccc(NCCn2cc(C3CCCNC3)nn2)cc1 (stereo not drawn) | -3.12
O=C(NCCNc1ccc(Br)cn1)c1ccc(O)cc1 | -6.46
Cc1nn(C)c(C)c1OCC(=O)N1CCCCC1 | -2.11
CNC(=O)COC1COC2(CCN(c3ncccn3)CC2)C1 (stereo not drawn) | -1.44
O=C(CCN1C(=O)CCC1=O)Nc1ccc(Cl)cc1 | -1.6
COc1cccc(CN(C)Cc2nc3cc(C)ccc3[nH]2)c1O | -2.34
COCc1nc2cc(NCc3sc(C)nc3C)ccc2o1 | -4.53
Cc1nn(C)cc1-c1ccnc(N(C)Cc2ccoc2)n1 | -3.89
Cc1nccn1C1CCCN(C(=O)COC2CCCC2)C1 (stereo not drawn) | -4.55
Cc1cc(CC(C)NC(=O)COc2ccc(F)cc2F)[nH]n1 (stereo not drawn) | -5.3
Cc1ncncc1C(=O)N1CCCN(Cc2ncc(Cl)n2C)CC1 | -1.21
c1ccc(N2CCC3(CCCN(c4ncccn4)C3)C2)nc1 (stereo not drawn) | 2.93
CC(C)N1CCC(NCc2cccnc2N(C)Cc2ccccc2)CC1 | -5.38
O=c1c2sccc2nc2n1CCN(Cc1cccs1)CC2 | -18.8
Cc1cc(C(=O)NCc2ccccc2CN(C)Cc2ccco2)on1 | 9.59
COC(=O)c1cccc(C(=O)N2CCCCC2CCn2ccnc2C)c1 (stereo not drawn) | -1.17

Structure (SMILES) | cytotoxicity at 70.5 h [%]
CC(C)c1nccn1CC(=O)Nc1ccnn1C(C)C(C)C (stereo not drawn) | -16
COc1ccc(OC)c(C(=O)N(C)Cc2nnc3ccccn23)c1 | -15.1
O=S1(=O)COCCN1Cc1ccc(F)c(C(F)(F)F)c1 | -10.2
NCCc1cccc(CN2CCN(c3ccccc3)C(=O)C2)c1 | -9.38
CCN(Cc1ccco1)C(C)c1nc(C(C)(C)C)no1 (stereo not drawn) | -3.44
Cn1cccc1C(=O)N1CCc2ncnc(C3CC3)c2CC1 | -0.695
CC(c1nc(C2CC2)no1)N1CCN(CC(=O)N2CCOCC2)CC1 (stereo not drawn) | 0.558
O=C(NCCCOCC1CC1)Nc1ccc(-n2cncn2)c(F)c1 | -13.3
CCN1CC(NC(=O)Nc2nc(C)n(C(C)C)n2)CC1=O (stereo not drawn) | 9.96
CC(C)(C(=O)NCC1CCN(Cc2ncc[nH]2)C1)c1ccccc1 (stereo not drawn) | -5.7
CC(C)(O)c1cc(CC2(NCC3CCCCC3)COC2)no1 | -16.3
COc1cccc(CNc2cnn(C)c(=O)c2Cl)c1 | 3.02
Cc1nnc(N2CCc3cnc(C(C)C)nc3C2)c(C#N)c1C | 1.1
COc1ccc(CNC(=O)NC2CCN(CC(F)F)CC2)cc1C | -7.09
Cc1cnc(N2CCCC3(CCOCC3)C2)nc1 | -1.55
Cc1nn2cc(CCNC(=O)c3cc(C(C)C)nn3C)nc2s1 | 6.04
CN1CC2(CCN(C(=O)Cc3ccccn3)CC2)OCC1=O | -5.16
Cc1ccc(C(=O)NCc2ccccc2S(=O)(=O)N(C)CCO)cc1F | -1.52
CN(c1nc(Cn2cc(Br)ccc2=O)cs1)C1CC1 | -4.85
CCCc1nc(C[S+]([O-])Cc2cn3cccc(C)c3n2)no1 (stereo not drawn) | -3.84
CC/C=C(/C)C(=O)NS(=O)(=O)c1ccc(C#N)cc1C(F)(F)F | -7.29

Structure (SMILES) | cytotoxicity at 70.5 h [%]
Cc1ccc(C(=O)N(C)CCNS(C)(=O)=O)cc1Br | -5.18
CCN(Cc1cc(Cl)ccc1OC)Cc1cc(C)nn1C | 2.1
Cc1cccc2cc(C(=O)N3CCSCC3)n(C)c12 | -3.37
CS(=O)(=O)N1C[C@@H]2CCN(C(=O)c3ccco3)[C@@H]2C1 | -2.6
CC(=O)NC1CCN(C(=O)c2cnc(COc3ccccc3)nc2O)C1 (stereo not drawn) | -4.02
CCOc1ccnc(N2CCN(C(=O)c3cc[nH]n3)CC2)n1 | -4.46
CC(C)c1nc(CN2CCN(C(=O)CC3CCCCC3)CC2)no1 | 7.95
Cc1cc(C)n(CC2CN(Cc3nc(C)c(C)o3)CCO2)n1 (stereo not drawn) | -5.6
CC(C)[C@H](NC(=O)NC1CCS(=O)(=O)C1)C(=O)NCc1ccccc1Cl (stereo partly drawn) | 0.909
CS(=O)(=O)NC1CCN(C(=O)NCC2CCCO2)CC1 (stereo not drawn) | -10.3
Cc1cccc(N2Cc3nc(=O)[nH]n3C2=O)c1 | -14.3
CC(C)(C)Nc1c(C2CCCN(C(=O)C3CC3)C2)nc2ccccn12 (stereo not drawn) | 17
CN(C)[C@@H]1CCN(C(=O)NC2CCCC2)[C@H]1Cc1ccncc1 | -9.4
NC(=O)N1CCCC(C(=O)Nc2cccc(Cl)c2)C1 (stereo not drawn) | -8.06
CCC(=O)N1CCN(S(=O)(=O)c2cccc(F)c2)[C@H]2CS(=O)(=O)C[C@H]21 | -13.7
CCn1ncc2c1CCCC2NCc1cc(C)ccc1OC (stereo not drawn) | -12.5
O=C(NCCNc1ncccn1)NCc1cccc(OC(F)F)c1 | 18.9
Cc1nsc(NC(=O)N2CCN(Cc3ccccc3F)C(=O)C2)n1 | -8.72
CNC(=O)c1cccc(NC(=O)c2ccnc(N(C)C)c2)c1C | -0.673
Cc1cc(C)c2nc(C)cc(C(=O)NC(C)c3nnn[nH]3)c2c1 (stereo not drawn) | 6.58
Cc1nnc(C2CCN(C(=O)c3ccc4[nH]ccc4c3)CC2)s1 | -5.35

Structure (SMILES) | cytotoxicity at 70.5 h [%]
Cc1noc(CCCC(=O)N2CCCCC2c2nccs2)n1 (stereo not drawn) | 32
CCOCC(=O)N1CCc2c(CN(C)C)nn(C(C)C)c2C1 | -4.01
O=C1CCC2(CCCN(C(=O)Cc3cccnc3)C2)N1 (stereo not drawn) | -6.68
CCOc1cccc2c1OCC(=O)N(c1ccc3c(c1)OCO3)C2 | 14.7
CCCS(=O)(=O)N1CCO[C@H]2[C@@H](Oc3cccnc3)CC[C@@H]21 | -1.96
N#Cc1ccnc(N2CCN(C(=O)c3ccc4c(c3)CCO4)CC2)c1 | -3.35
Cc1c(CNC(=O)NCc2cccc(-n3cncn3)c2)cnn1C | -5.57
CCN(CC)C1CCN(C(=O)NCc2c(C)noc2C)CC1 | -7.03
c1ccc(-n2cc(CN3CCCC3Cn3cccn3)nn2)cc1 (stereo not drawn) | -10.7
Cc1ncc2c(n1)CN(CC(=O)Nc1nnc(C)s1)CC2 | -8.66
Cc1c(C)n(CC(O)CN2CCC(O)CC2)c2c(Cl)cccc12 (stereo not drawn) | 16.5
Cc1ccc2c(c1)N(C(=O)c1c[nH]c(C)cc1=O)CC(C)O2 (stereo not drawn) | 28.6
Cn1ccc(C(=O)Nc2nc(-c3ccc(Cl)cc3)n[nH]2)cc1=O | 24.6
Cc1cc(C)n(Cc2ccc(-c3noc(C(=O)NCCCO)n3)cc2)n1 | -21.4
COc1cccc(CNC[C@H]2COCc3nc4cccnc4n32)n1 | -8.19
CC(=O)N1CCN(C(=O)C(C)Nc2ccc3ncsc3c2)CC1 (stereo not drawn) | 0.285
Cc1noc2ncc(C(=O)N3CCCC(n4cccn4)C3)cc12 (stereo not drawn) | -2.98
CC(=O)Nc1ccc(C(=O)NCCCn2cccc2)cc1 | -14.1
COC(=O)C(C)N1CCCc2cc(OC)ccc2C1 (stereo not drawn) | -4.67
COc1ccc(CN2C[C@H]3CCC[C@@H](CN(C)C4CC4)[C@H]3C2)cn1 | 10.8
